Assay results as given in patent publication US20240246981A1, “[…] DERIVATIVES AS INHIBITORS OF […]-PEPTIDE CYCLOTRANSFERASE AND […]-PEPTIDE CYCLOTRANSFERASE LIKE PROTEIN” (Boehringer Ingelheim International GmbH, priority 2022, published 2024).
Like-named read-outs stand apart in the source and are kept apart here.

Key:
[1] = molecular target: QPCT (Homo sapiens (Human), UniProt Q16769); experiment: Assay A: biochemical QPCT activity assay (MALDI-TOF MS); conditions: compounds of the invention, Table 2; read-out: Inhibition of QPCT: IC50
Chain of QPCT (Q16769 29-361): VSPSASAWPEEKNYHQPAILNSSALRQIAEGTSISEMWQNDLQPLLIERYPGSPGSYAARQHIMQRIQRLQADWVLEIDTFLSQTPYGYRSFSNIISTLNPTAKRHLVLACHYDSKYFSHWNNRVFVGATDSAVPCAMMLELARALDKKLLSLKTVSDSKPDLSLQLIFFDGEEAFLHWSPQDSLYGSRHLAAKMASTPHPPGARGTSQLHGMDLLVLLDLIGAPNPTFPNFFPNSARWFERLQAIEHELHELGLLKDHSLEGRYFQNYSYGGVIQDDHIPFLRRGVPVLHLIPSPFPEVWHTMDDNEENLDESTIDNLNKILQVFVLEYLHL
Procedure: (§1) QPCT or QPCTL dependent conversion of N-terminal glutamine to pyroglutamate of CD47 was monitored via MALDI-TOF MS. Test compounds were dissolved in 100% DMSO and serially diluted into clear 1,536-well microtiter plates. Enzymatic reactions were set up in assay buffer containing 20 mM Tris pH 7.5, 0.1 mM TCEP, 0.01% BSA, and 0.001% Tween20. […] The plates were incubated for 10 min in a humidified incubator at 24° C. Subsequently, 2.5 μL of CD47 peptide substrate surrogate (^19[…]^33) was added to each well (final concentration: 10 μM for QPCTL/20 μM for QPCT). The plates were mixed for 30 sec at 1,000 rpm and subsequently incubated for 40 min in a humidified incubator at 24° C. […] The plates were sealed with an adhesive foil, mixed for 30 s at 1,000 rpm and stored at room temperature until preparation of the MALDI target plates. […] QPCT or QPCTL activity was monitored by calculating the ratio between product and internal standard signals followed by normalization to high (100% activity) and low (0% activity) controls. Determination of compound potencies was obtained by fitting the dose-response data to a four-parameter logistical equation.

[2] = tested on: SIRPα signalling induced by Raji cells; experiment: Assay B: SIRPα signalling assay using Raji cells; format: cell-based, human; conditions: Homo sapiens
Procedure: Bioassay reagent 1 of the PathHunter Bioassay detection kit (DiscoverX 93-0001) was added to each well of the plate using a multichannel pipette followed by a 15 min incubation at room temperature. Afterwards bioassay reagent 2 was added followed by 60 min incubation at room temperature (incubation in the dark).
(§2) The analysis of the data was performed using the luminescence signal generated by beta-galactosidase in the PathHunter reporter cell line. The luminescence measurement was done using a Pherastar Multi-Mode Reader.

[3] = molecular target: QPCTL (Homo sapiens (Human), UniProt Q9NXS2); experiment: Assay A: biochemical QPCTL activity assay (MALDI-TOF MS); conditions: compounds of the invention, Table 2; read-out: Inhibition of QPCTL: IC50
Chain of QPCTL (Q9NXS2 whole entry): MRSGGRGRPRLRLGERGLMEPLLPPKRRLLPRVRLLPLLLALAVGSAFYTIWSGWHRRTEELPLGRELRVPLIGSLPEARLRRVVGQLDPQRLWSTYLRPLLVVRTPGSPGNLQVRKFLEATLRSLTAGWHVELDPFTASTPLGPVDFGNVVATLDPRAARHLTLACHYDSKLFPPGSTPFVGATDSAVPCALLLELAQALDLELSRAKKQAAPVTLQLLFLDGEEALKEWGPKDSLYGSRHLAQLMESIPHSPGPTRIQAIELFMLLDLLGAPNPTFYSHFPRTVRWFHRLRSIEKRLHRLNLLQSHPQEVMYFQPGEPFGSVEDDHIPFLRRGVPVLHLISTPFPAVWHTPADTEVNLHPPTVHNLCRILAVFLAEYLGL
Procedure: as §1

[4] = tested on: SIRPα signalling induced by A549 cells; experiment: Assay B: SIRPα signalling assay using A549 cells; format: cell-based, human; conditions: Homo sapiens
Procedure: Two cell types are independently used: the Raji cell line (lymphoblastlike human cell line derived from B lymphocytes from a Burkitt's lymphoma patient in 1963) and A549 cells (adenocarcinomic human alveolar basal epithelial cells).
Test compounds were dissolved in 100% DMSO and serially diluted into a white 384-well microtiter cell culture plate (PerkinElmer #60076780 in case of Raji assay; PDL-coated plates Greiner #781945 in case of A549 assay). 5000 Raji cells (ATCC #CC86) or 5000 A549 cells (ATCC #CCL-185) in Assay Complete Cell Plating reagent 30 (DiscoverX 93-0563R30B) were added per well. The assay plate was incubated for 48 h at 37° C., 95% humidity and 5% CO2. 15000 reporter cells (Jurkat PathHunter SIRPα V1, DiscoverX #93-1135C19) were added to each well, and the plate was incubated for 5 h at 37° C., 95% humidity and 5% CO2. Bioassay reagent 1 of the PathHunter Bioassay detection kit (DiscoverX 93-0001) was added to each well of the plate using a multichannel pipette followed by a 15 min incubation at room temperature. Afterwards bioassay reagent 2 was added followed by 60 min incubation at room temperature (incubation in the dark).
as §2, with “Reader. Dose-response curves & IC50 data were calculated with 4-parameter sigmoidal dose response formula.” for “Reader.”

[5] = Assay C: permeability in CACO-2 cells; format: in vitro ADME; conditions: human, pH 7.2; for Papp A→B / Papp A→B at 2 h: Caco-2, apical to basolateral; for efflux ratio / efflux ratio at 2 h: Caco-2
Procedure: Compounds are dissolved in appropriate solvent (like DMSO, 1-20 mM stock solutions). […] The transport solution (TL) is applied to the apical or basolateral donor side for measuring A-B or B-A permeability (3 filter replicates), respectively. Samples are collected at the start and end of experiment from the donor and at various time intervals for up to 2 hours also from the receiver side for concentration measurement by HPLC-MS/MS or scintillation counting. Sampled receiver volumes are replaced with fresh receiver solution.

[6] = compounds of the invention, Table 4, read-out: Inhibition of SIRα signalling induced by Raji cells: IC50
[7] = compounds of the invention, Table 4, read-out: Inhibition of SIRα signalling induced by A549 cells: IC50
[8] = compounds of the invention, Table 7

Row | SMILES | IC50 [1] | IC50 [2, 6] | IC50 [3] | IC50 [4, 7] | Papp A→B [5, 8] | efflux ratio [5, 8] | Papp A→B at 2 h [5, 8] | efflux ratio at 2 h [5, 8] | IC50 ([4]; prior art compounds, Table 5, read-out: Inhibition of SIRPα signalling induced by A549 cells: IC50) | Papp A→B at 2 h ([5]; prior art compounds, Table 8) | IC50 ([2]; prior art compounds, Table 5, read-out: Inhibition of SIRPα signalling induced by Raji cells: IC50)
1 | Cn1cnnc1C1CCN(c2c(C#N)cccc2-c2cncc(CO)c2)CC1 [compound 9] | 38 nM | 309 nM | 11 nM | – | – | – | – | – | – | – | –
2 | Cn1cnnc1C1CCN(c2c(C#N)cccc2-c2cncc(-c3ncco3)c2)CC1 [compound 29] | 25 nM | 121 nM | 3 nM | 81 nM | 3.1 ×10⁻⁶ cm/s | 16.5 | – | – | – | – | –
3 | Cn1cnnc1C1CCN(c2c(C#N)cccc2-c2cnc3nc(-c4cccc(Cl)c4)ccn23)CC1 [compound 28] | 12 nM | 250 nM | 2 nM | 282 nM | 5.5 ×10⁻⁶ cm/s | 12.4 | – | – | – | – | –
4 | Cn1cnnc1C1CCN(c2c(C#N)cccc2-c2cncc(C(N)=O)c2)CC1 [compound 14] | 21 nM | 761 nM | 3 nM | – | 0.1 ×10⁻⁶ cm/s | 50.9 | – | – | – | – | –
5 | Cn1cnnc1C1(C)CCN(c2c(C#N)cccc2-c2cccnc2)CC1 [Example 65] | – | 1040 nM | – | – | – | – | 9.8 ×10⁻⁶ cm/s | 4.9 | – | – | –
6 | Cn1cnnc1C1CCN(S(=O)(=O)c2cccc(Nc3ccc(F)nc3)c2)CC1 [compound 21, reference compound] | – | – | – | – | – | – | – | – | > 10000 nM | 0.7 ×10⁻⁶ cm/s | > 10000 nM
7 | Cn1cnnc1C1CCN(c2c(C#N)cccc2-c2cnc3nn(C)c(C(F)(F)F)c3c2)CC1 [Example 41] | – | 88 nM | – | 97 nM | – | – | 2.9 ×10⁻⁶ cm/s | – | – | – | –
8 | Cn1cnnc1C1CCN(c2c(C#N)cccc2-c2cncc(-c3ccccc3)c2)CC1 [compound 21, reference compound] | – | 1320 nM | – | 530 nM | – | – | 33 ×10⁻⁶ cm/s | 2.8 | – | – | –
9 | Cn1cnnc1C1CCN(c2c(C#N)cccc2-c2ccc(F)nc2)CC1 [Example 1] | – | – | – | 9 nM | – | – | 28 ×10⁻⁶ cm/s | – | – | – | –
10 | Cn1cnnc1C1CCN(c2c(C#N)cccc2-c2cnc(F)c(OC3CCC3)c2)CC1 [Example 34] | – | 52 nM | – | 25 nM | – | – | 22 ×10⁻⁶ cm/s | 3.3 | – | – | –
11 | Cn1cnnc1C1CCN(c2c(C#N)cccc2-c2cnc(F)c(Oc3ccccc3)c2)CC1 [Example 38] | – | 372 nM | – | 98 nM | – | – | 20 ×10⁻⁶ cm/s | 1.9 | – | – | –
12 | Cn1cnnc1C1(F)CCN(c2c(C#N)cccc2-c2cnc3nn(CC(F)F)cc3c2)CC1 [compound 60] | 1 nM | 17 nM | – | 16 nM | 0.5 ×10⁻⁶ cm/s | 100 | – | – | – | – | –
13 | Cn1cnnc1C1(F)CCN(c2c(C#N)cccc2-c2cnc3nc(C(C)(C)C)[nH]c3c2)CC1 [compound 69] | – | 11 nM | – | 10 nM | 0.5 ×10⁻⁶ cm/s | 56.9 | – | – | – | – | –
14 | Cn1cnnc1C1(F)CCN(c2c(C#N)cccc2-c2cnc(O)nc2)CC1 [compound 54] | 1 nM | 851 nM | – | 205 nM | 0.1 ×10⁻⁶ cm/s | 11.1 | – | – | – | – | –
15 | Cn1cnnc1C1CCN(c2c(C#N)cccc2-c2cncc(OC(F)F)c2)CC1 [compound 23, reference compound] | – | 1070 nM | – | 342 nM | – | – | 10.1 ×10⁻⁶ cm/s | 7.1 | – | – | –

Further compounds by falling IC50 [2, 6], results first:

Row | IC50 [1] | IC50 [2, 6] | IC50 [3] | IC50 [4, 7] | Papp A→B [5, 8] | efflux ratio [5, 8] | Papp A→B at 2 h [5, 8] | efflux ratio at 2 h [5, 8] | IC50 ([4]; prior art compounds, Table 5, read-out: Inhibition of SIRPα signalling induced by A549 cells: IC50) | Papp A→B at 2 h ([5]; prior art compounds, Table 8) | IC50 ([2]; prior art compounds, Table 5, read-out: Inhibition of SIRPα signalling induced by Raji cells: IC50) | SMILES
16 | 357 nM | 2270 nM | 56 nM | 294 nM | 13.6 ×10⁻⁶ cm/s | 5 | – | – | – | – | – | Cn1cnnc1C1CCN(c2c(C#N)cccc2-c2ccc(Cl)nc2)CC1 [compound 18]
17 | – | 493 nM | – | 249 nM | – | – | < 0.3 ×10⁻⁶ cm/s | > 4.3 | – | – | – | Cn1cnnc1C1(F)CCN(c2c(C#N)cccc2-c2cnc(=O)n(C)c2)CC1 [Example 58]
18 | 100 nM | 483 nM | 15 nM | – | 4.4 ×10⁻⁶ cm/s | 13.4 | – | – | – | – | – | COC(=O)c1cncc(-c2cccc(C#N)c2N2CCC(c3nncn3C)CC2)c1 [compound 27]
19 | 28 nM | 342 nM | 3 nM | 271 nM | 2.2 ×10⁻⁶ cm/s | 22.3 | – | – | – | – | – | Cn1cnnc1C1CCN(c2c(C#N)cccc2-c2cnc3nsnc3c2)CC1 [compound 43]
20 | – | 325 nM | – | 113 nM | – | – | 23 ×10⁻⁶ cm/s | 2 | – | – | – | Cn1cnnc1C1CCN(c2c(C#N)cccc2-c2cnc(F)c(OC(F)F)c2)CC1 [Example 37]
21 | 12 nM | 170 nM | 2 nM | 67 nM | 1.5 ×10⁻⁶ cm/s | 19.3 | – | – | – | – | – | Cn1cnnc1C1CCN(c2c(C#N)cccc2-c2cnc3nonc3c2)CC1 [compound 7]
22 | 26 nM | 140 nM | 4 nM | 173 nM | 0.8 ×10⁻⁶ cm/s | 31.6 | – | – | – | – | – | Cn1nc2cc(-c3cccc(C#N)c3N3CCC(c4nncn4C)CC3)cnc2n1 [compound 45]
23 | 18 nM | 109 nM | 4 nM | 121 nM | 11 ×10⁻⁶ cm/s | 1.5 | – | – | – | – | – | COc1cc(F)ncc1-c1cccc(C#N)c1N1CCC(c2nncn2C)CC1 [compound 44]
24 | 3 nM | 102 nM | 1 nM | 47 nM | 55 ×10⁻⁶ cm/s | 1.3 | – | – | – | – | – | Cc1cc(F)ncc1-c1cccc(C#N)c1N1CCC(F)(c2nncn2C)CC1 [compound 83]
25 | 2 nM | 100 nM | 3 nM | 14 nM | 30 ×10⁻⁶ cm/s | 1.4 | – | – | – | – | – | Cn1cnnc1C1(C)CCN(c2c(C#N)cccc2-c2ccc(F)nc2)CC1 [compound 66]
26 | 13 nM | 97 nM | 2 nM | 71 nM | 6.8 ×10⁻⁶ cm/s | 2.5 | – | – | – | – | – | Cc1c(-c2cccc(C#N)c2N2CCC(c3nncn3C)CC2)cncc1-n1cccn1 [compound 46]
27 | 6 nM | 91 nM | 3 nM | 63 nM | 33 ×10⁻⁶ cm/s | 1.8 | – | – | – | – | – | Cn1cnnc1C1(F)CCN(c2c(C#N)cccc2-c2cnc3nc(-c4cccc(Cl)c4)ccn23)CC1 [compound 84]
28 | 9 nM | 63 nM | 2 nM | 56 nM | 18 ×10⁻⁶ cm/s | 3.6 | – | – | – | – | – | COc1cc(-c2cccc(C#N)c2N2CCC(c3nncn3C)CC2)cnc1F [compound 49]
29 | 5 nM | 61 nM | 2 nM | 19 nM | 29 ×10⁻⁶ cm/s | 1.2 | – | – | – | – | – | Cn1cnnc1C1(F)CCN(c2c(C#N)cccc2-c2cnc3nn(Cc4ccccc4)nc3c2)CC1 [compound 64]
30 | 12 nM | 51 nM | 2 nM | 18 nM | 24 ×10⁻⁶ cm/s | 2.4 | – | – | – | – | – | Cn1cnnc1C1CCN(c2c(C#N)cccc2-c2cnc(F)c(OCc3ccccc3)c2)CC1 [compound 35]
31 | – | 38 nM | – | 44 nM | – | – | 1.4 ×10⁻⁶ cm/s | 40 | – | – | – | Cn1cnnc1C1(F)CCN(c2c(C#N)cccc2-c2cnc3nn(CC(F)(F)F)cc3c2)CC1 [Example 55]
